Test results as given in ChEMBL document CHEMBL4483862, “Open-source discovery of chemical leads for next-generation chemoprotective antimalarials” (2018).

Tested on: Plasmodium berghei
Experiment: Luciferase/luciferin-expressing antifolate-resistant parasites were used to infect a culture of HepG2 cells that were pre-incubated with compounds. Infected hepatocytes emit light due to the luciferase reaction. Assay results are presented as the percent inhibition of light emission compared to control. […]
Format: functional
Conditions: sporozoite; for IC90: read-out: LUCIFERASE INFECTION ASSAY - IC90
[1] = read-out: LUCIFERASE INFECTION ASSAY - IC50

SMILES | IC50 [1] [µM] | IC90 [µM] | also measured
COc1ccccc1NC(=O)Cc1noc(CNc2ccc(F)cc2C)n1 | > 10 | > 10 | –
CCc1ccc(NC(=O)Cc2nc(-c3ccc4c(c3)CCCN4S(C)(=O)=O)cs2)cc1 | – | > 10 | IC50 (HEPG2TOX_HILL_SLOPE 9.08, HEPG2TOX_R_SQUARED 0.0527, PBLUC_HILL_SLOPE 1.74, PBLUC_R_SQUARED 0.25, read-out: LUCIFERASE INFECTION ASSAY - IC50): 5.76 µM
N#Cc1ccnc(N2CCN(c3nc(CSc4ccccc4)nc4sc5c(c34)CCC5)CC2)c1 | > 10 | > 10 | –
CCN(CC)C(=O)c1sc2nc(-c3ccccn3)nc(O)c2c1C | > 10 | > 10 | –
C=C1SC(Nc2cc(C)cc(C)c2)=NC1(C)C | – | > 13.4 | IC50 (PBLUC_HILL_SLOPE 0.95, PBLUC_R_SQUARED 0.559, read-out: LUCIFERASE INFECTION ASSAY - IC50): > 13.4 µM
CCOc1cc(/C=C/c2nc3cc(C)c(C)cc3s2)ccc1O | – | > 10 | IC50 (HEPG2TOX_HILL_SLOPE 6.63, HEPG2TOX_R_SQUARED 0.787, PBLUC_HILL_SLOPE 3.12, PBLUC_R_SQUARED 0.499, read-out: LUCIFERASE INFECTION ASSAY - IC50): 6.52 µM
CC(C)(C)c1ccc(C(=O)N/N=C/c2cc(Cl)cc(Cl)c2O)cc1 | > 9.03 | > 9.03 | –
Clc1cc2c(c3ncccc13)OCN(C1CCCC1)C2 | – | 2.79 | IC50 (FFLUC_HILL_SLOPE 11.1, FFLUC_R_SQUARED 0.223, HEPG2TOX_HILL_SLOPE 2.6, HEPG2TOX_R_SQUARED 0.787, PBLUC_HILL_SLOPE 4.7, PBLUC_R_SQUARED 0.818, read-out: LUCIFERASE INFECTION ASSAY - IC50): 1.75 µM
Cn1ncc2c(N3CCN(CC(=O)Nc4nc(-c5c[nH]c6ccccc56)cs4)CC3)ncnc21 | – | 4.22 | IC50 (HEPG2TOX_HILL_SLOPE 3.32, HEPG2TOX_R_SQUARED 0.453, PBLUC_HILL_SLOPE 2.65, 8.86, PBLUC_R_SQUARED 0.123, 0.280, read-out: LUCIFERASE INFECTION ASSAY - IC50): 2.62 µM
CCOc1ccc(OCc2ccc(C(=O)NNC3CC(=O)N(CCOC)C3=O)cc2)cc1 (stereo not drawn) | > 10 | > 10 | –
CCCn1c(NC(=O)C2CC(=O)N(Cc3ccc(C)cc3)C2)nc2ccccc21 (stereo not drawn) | > 10 | > 10 | –
CN(Cc1nc(N)c2c3c(sc2n1)CCCC3)Cc1cccs1 | – | > 10 | IC50 (PBLUC_HILL_SLOPE 2.01, PBLUC_R_SQUARED 0.418, read-out: LUCIFERASE INFECTION ASSAY - IC50): 4.1 µM
O=C1c2ccccc2NC(c2cc(Br)cs2)N1C1CC1 (stereo not drawn) | > 10 | > 10 | –
Cc1cnc(NC(=O)c2ccc3nccnc3c2)s1 | – | > 10 | IC50 (HEPG2TOX_HILL_SLOPE 19.6, HEPG2TOX_R_SQUARED 0.459, read-out: LUCIFERASE INFECTION ASSAY - IC50): > 10 µM
CC(C)(C)c1ccc(NC(=O)c2ccc(CCNS(C)(=O)=O)cc2)cc1 | – | 3.46 | IC50 (HEPG2TOX_HILL_SLOPE 2.32, HEPG2TOX_R_SQUARED 0.971, PBLUC_HILL_SLOPE 55.7, PBLUC_R_SQUARED 0.572, read-out: LUCIFERASE INFECTION ASSAY - IC50): 3.32 µM
CC(C)(C)c1ccc(C(=O)NNC(=S)Nc2cccc(C(F)(F)F)c2)cc1 | 7.4 | > 8.34 | –
CC(C)c1ccccc1N(C(=O)Cc1ccc(-c2ccccc2)cc1)c1nc2ccccc2s1 | – | > 10 | IC50 (FFLUC_HILL_SLOPE 11.9, FFLUC_R_SQUARED 0.677, HEPG2TOX_HILL_SLOPE 16.8, HEPG2TOX_R_SQUARED 0.508, PBLUC_HILL_SLOPE 1.31, PBLUC_R_SQUARED 0.0526, read-out: LUCIFERASE INFECTION ASSAY - IC50): 6.43 µM
CC1CCc2[nH]c3ccc(C(=O)NCc4ccccc4CN(C)C)cc3c2C1 (stereo not drawn) | – | > 10 | IC50 (HEPG2TOX_HILL_SLOPE 12.7, HEPG2TOX_R_SQUARED 0.279, PBLUC_HILL_SLOPE 14.5, PBLUC_R_SQUARED 0.467, read-out: LUCIFERASE INFECTION ASSAY - IC50): 9.09 µM
C=CCn1c(C)cc(C(=O)CNC(=O)Nc2ccccc2)c1C | – | > 10 | IC50 (HEPG2TOX_HILL_SLOPE 12.5, HEPG2TOX_R_SQUARED 0.766, PBLUC_HILL_SLOPE 0.462, PBLUC_R_SQUARED 0.648, read-out: LUCIFERASE INFECTION ASSAY - IC50): 0.495 µM
CCOC(=O)c1c(C)[nH]c(C(=O)COC(=O)Cn2[nH]c(=O)c3ccccc3c2=O)c1C | – | > 10 | IC50 (HEPG2TOX_HILL_SLOPE 2.60, 1.21, HEPG2TOX_R_SQUARED 0.645, 0.988, read-out: LUCIFERASE INFECTION ASSAY - IC50): > 10 µM
COc1ccc(-c2csc(N/C=C3/C(=O)NC(=O)c4ccccc43)n2)cc1OC | – | 8.15 | IC50 (HEPG2TOX_HILL_SLOPE 3.11, HEPG2TOX_R_SQUARED 0.952, PBLUC_HILL_SLOPE 3, PBLUC_R_SQUARED 0.801, read-out: LUCIFERASE INFECTION ASSAY - IC50): 3.92 µM
Fc1cccc(NC(=S)NC2CCCCCCCCCCC2)c1 | – | 4.49 | IC50 (HEPG2TOX_HILL_SLOPE 19.2, HEPG2TOX_R_SQUARED 0.924, PBLUC_HILL_SLOPE 9.11, PBLUC_R_SQUARED 0.436, read-out: LUCIFERASE INFECTION ASSAY - IC50): 3.53 µM

SMILES | IC50 [1] [µM] | IC90 [µM] | also measured
Cc1cnc(C(=O)Nc2cc(C(F)(F)F)ccc2N2CCN(C)CC2)cn1 | – | > 10 | IC50 (PBLUC_HILL_SLOPE 0.31, PBLUC_R_SQUARED 0.853, read-out: LUCIFERASE INFECTION ASSAY - IC50): > 10 µM
CSc1ccc(-c2cn3c(-c4ccc(CO)cc4)cnc3cn2)cc1 | > 9.5 | > 9.5 | –
CC(C)(C(=O)NNC(=O)c1ccc2ccccc2n1)c1ccccc1 | – | 7.01 | IC50 (HEPG2TOX_HILL_SLOPE 11.1, HEPG2TOX_R_SQUARED 0.756, PBLUC_HILL_SLOPE 1.23E+03, PBLUC_R_SQUARED 0.165, read-out: LUCIFERASE INFECTION ASSAY - IC50): 7 µM
Cn1c(N)c(C(=O)COC(=O)c2c3c(nc4ccccc24)CCCCC3)c(=O)n(C)c1=O | 8.99 | > 10 | –
COc1ccc([N+]2=C3CCCCCN3CC2(O)c2ccc(-c3ccccc3)cc2)cc1 (stereo not drawn) | – | > 10 | IC50 (HEPG2TOX_HILL_SLOPE 6.91, HEPG2TOX_R_SQUARED 0.498, PBLUC_HILL_SLOPE 1.91, PBLUC_R_SQUARED 0.528, read-out: LUCIFERASE INFECTION ASSAY - IC50): 3.24 µM
CC1C(=O)N(Cc2ncc(-c3ccccc3)o2)C(=O)N1c1ccc(F)cc1 (stereo not drawn) | 9.72 | > 10 | –
CNc1nc2cnc(Nc3cccc(Oc4ccccc4)c3)cc2n1-c1ccccc1 | – | > 10 | IC50 (HEPG2TOX_HILL_SLOPE 5.82, HEPG2TOX_R_SQUARED 0.501, PBLUC_HILL_SLOPE 8.19, PBLUC_R_SQUARED 0.453, read-out: LUCIFERASE INFECTION ASSAY - IC50): 8.37 µM
COc1ccccc1Oc1ccc(NC(C)C(=O)N2CCCC2)cc1 (stereo not drawn) | – | > 10 | IC50 (PBLUC_HILL_SLOPE 21.7, PBLUC_R_SQUARED 0.137, read-out: LUCIFERASE INFECTION ASSAY - IC50): 9.85 µM
CC(=O)N(c1nn(CN(C2CC2)C2CCS(=O)(=O)C2)c(=S)s1)C1CC1 (stereo not drawn) | – | > 10 | IC50 (FFLUC_HILL_SLOPE 12.8, FFLUC_R_SQUARED 0.42, read-out: LUCIFERASE INFECTION ASSAY - IC50): > 10 µM
CCOc1ccc(C(=O)COC(=O)c2c3ccccc3cc3ccccc23)cc1 | > 10 | > 10 | –
Cc1ncsc1CCOC(=O)c1cc(Cl)c2c(c1)OCCO2 | > 10 | > 10 | –
O=C(CCc1ccc(-c2ccccc2)o1)Nc1nc(CN2CCCCC2)cs1 | > 10 | > 10 | –
CN(CC(=O)Nc1nc(C23CC4CC(CC(C4)C2)C3)cs1)S(=O)(=O)c1cccs1 | – | 3.45 | IC50 (FFLUC_HILL_SLOPE 3.68, FFLUC_R_SQUARED 0.43, PBLUC_HILL_SLOPE 112, PBLUC_R_SQUARED 0.327, read-out: LUCIFERASE INFECTION ASSAY - IC50): 3.38 µM
CN(C)S(=O)(=O)c1cccc(COC(=O)C2(c3ccc(F)cc3)CCCC2)c1 | – | > 10 | IC50 (PBLUC_HILL_SLOPE 13, PBLUC_R_SQUARED 0.517, read-out: LUCIFERASE INFECTION ASSAY - IC50): 8.83 µM
C=CCn1c(SCC(=O)c2cc(C)n(CC3CCCO3)c2C)nc2scc(-c3ccc(C)cc3)c2c1=O (stereo not drawn) | – | > 10 | IC50 (FFLUC_HILL_SLOPE 2.53, FFLUC_R_SQUARED 0.599, read-out: LUCIFERASE INFECTION ASSAY - IC50): > 10 µM
Cc1cc(C(C)(C)C)cc(C)c1COC(=O)c1cccnc1 | – | > 10 | IC50 (HEPG2TOX_HILL_SLOPE 2.37, HEPG2TOX_R_SQUARED 0.0156, PBLUC_HILL_SLOPE 8.85, PBLUC_R_SQUARED 0.304, read-out: LUCIFERASE INFECTION ASSAY - IC50): 8.03 µM
C=CCNC(=S)N/N=C/C1=C(N2CCOCC2)C(=C/c2ccc(Cl)cc2Cl)/CC1 | > 10 | > 10 | –
COC(=O)c1ccc2c(=O)nc(CSc3nnc(-c4ccccc4)c(-c4ccccc4)n3)[nH]c2c1 | > 10 | > 10 | –
CN(C)c1ccc(-c2nnc3ccccn23)cc1 | 6.56 | > 13.8 | –
CC(C)c1ccc(Nc2ncnc(N)n2)c(Br)c1 | > 10.7 | > 10.7 | –
OC(c1cc(F)c(F)c(F)c1)c1nnc(Nc2cc(C(F)(F)F)ccc2F)s1 (stereo not drawn) | – | 7.5 | IC50 (PBLUC_HILL_SLOPE 4.45, PBLUC_R_SQUARED 0.324, read-out: LUCIFERASE INFECTION ASSAY - IC50): 4.58 µM
CC(C)(C)c1ccc(-c2cnc3cnc(-c4ccc(C(=O)NCCO)cc4)cn23)cc1 | – | > 7.96 | IC50 (PBLUC_HILL_SLOPE 23.2, PBLUC_R_SQUARED 0.508, read-out: LUCIFERASE INFECTION ASSAY - IC50): 7.27 µM
